Test results published in PMC11858051, “PK/PD Analysis of High-Dose Daptomycin Use in the Treatment of Bone and Joint Infections: Data from a Real-World Setting” (Microorganisms, 2025).

What was measured:
[1] = human, in vivo
Description: This is a retrospective, monocentric study, including adult patients with a suspected or documented diagnosis of Gram-positive BJI who received daptomycin and whose plasma concentrations were measured once the steady state was reached. The study was approved by the Institutional Review Board of University of Udine (Prot IRB: 266/2023). We included all patients who were hospitalized at our University Hospital from July 2022 to December 2023. Data were retrieved from the hospital’s electronic registry, selecting all TDM performed by the Clinical Pharmacology Institute of ASU FC in the time frame of interest and then identifying the analyses required by the orthopedic wards (see Figure 1).
The peak and trough concentrations of daptomycin were determined through blood samples collected 30 min after the drug infusion and before dosing, respectively, on day 3 of therapy, once steady state was achieved. The drug clearance was estimated as apparent clearance, calculated as the […].
Daptomycin concentrations were measured by a validated High-Performance Liquid Chromatography–Ultraviolet (HPLC-UV) method previously published, using Nexera-i 2040 LC, Shimadzu® (Shimadzu USA Manufacturing INC, Canby, OR, USA).

[2] = C-reactive protein as surrogate efficacy marker during TDM; assay type: in vivo, human
Description: Therefore, we attempted to correlate the targeted AUC0–24h with CRP levels measured after treatment. The CRP was obtained at the time of diagnosis and at the end of treatment or between stages in two-stage exchange arthroplasty.

[3] = PK/PD target attainment at first TDM (eAUC0–24h and trough thresholds)
Description: All patients performed daptomycin TDM according to the clinical practice, and its daily area under the concentration–time curve (eAUC0–24h; including eAUC24–48h in case of other day administration, meaning when the drug dose was given every 48 h instead of every 24 h as indicated in the SmPC as the standard dose) was estimated according to the following Equation (1) reported in the literature [18, 19], based on daptomycin trough and peak plasma concentrations: (1) AUC0–24 h = 0.5 × t^′×Cmax +∫t^′infinityCmax ×e^−kel×(t)dt− ∫24infinityCmin ×e^−kel×(t)dt
For the analysis of the safety profile of daptomycin, we considered the main PK parameters expressing the overall exposure to the antibiotic and its property to be cleared, such as eAUC0–24h and the trough plasma concentrations, respectively. For the efficacy daptomycin PK/PD targets, we considered the main PK parameter indicating the daily exposure to daptomycin which is represented by the eAUC0–24h and we combined this with the pertinent PD parameter of interest of bacterial disease which is the Minimum Inhibitory Concentration (MIC) of the isolated pathogen.

[4] = single patient with CPK 1000 U/L

CCCCCCCCCC(=O)N[C@@H](Cc1c[nH]c2ccccc12)C(=O)N[C@H](CC(N)=O)C(=O)N[C@@H](CC(=O)O)C(=O)N[C@@H]1C(=O)NCC(=O)N[C@@H](CCCN)C(=O)N[C@@H](CC(=O)O)C(=O)N[C@H](C)C(=O)N[C@@H](CC(=O)O)C(=O)NCC(=O)N[C@H](CO)C(=O)N[C@@H]([C@H](C)CC(=O)O)C(=O)N[C@@H](CC(=O)c2ccccc2N)C(=O)O[C@@H]1C [daptomycin, Daptomycin]
estimated AUC0–24h, maximum value [1]: 2263 µg·h/mL
estimated AUC0–24h, minimum value [1]: 395.7 µg·h/mL
exposure in females compared with males (eAUC0–24h, trough, peak, clearance, also dose-adjusted) [1]: Females are overexposed to daptomycin compared with males
median dose-adjusted eAUC0–24h (eAUC0–24h/D), BMI > 25 kg/m^2 [1]: 112.6
median dose-adjusted eAUC0–24h (eAUC0–24h/D), BMI ≤ 25 kg/m^2 [1]: 89.58
median eAUC between 24 and 48 h after dosing (eAUC24–48h), other day administration [1]: 339.8 µg·h/mL
median eAUC within 24 h from dosing, other day administration [1]: 1060 µg·h/mL
median estimated AUC0–24h [1]: 996.3 µg·h/mL
median estimated drug clearance [1]: 12.2 mL/min
median CRP during TDM ([2]; 155 measurements, median): 28.99 mg/L
median CRP when eAUC0–24h >939 mg·h/L ([2]; aggressive eAUC0–24h group, Mann–Whitney p = 0.029 vs <939): 17.47 mg/L
median CRP when eAUC0–24h < 939 mg·h/L ([2]; eAUC0–24h < 939 mg·h/L group): 40.60 mg/L
patients not receiving adequate doses for the PK/PD efficacy and safety targets ([3]; dosing suggested in the SmPC): 68.8%
patients underexposed (eAUC0–24h < 666 mg·h/L) ([3]; first TDM, 6 of 77 patients, doses according to SmPC): 7.8%
patients with high eAUC0–24h to monitor (939–1174 mg·h/L) and trough <24.3 mg/L ([3]; first TDM, 16 of 77 patients): 20.8%
patients with eAUC0–24h > 1174 mg·h/L ([3]; first TDM, 26 of 77 patients): 33.8%
patients on target (eAUC0–24h 666–939 mg·h/L and trough < 24.3 mg/L) ([3]; first TDM, 27 of 77 patients): 35.1%
cases with increase in absolute eosinophil count at follow-up (132 eosinophil count measurements at basal time and during TDM): 108 cases
other adverse events (during therapy): No other adverse events were reported
eAUC0–24h of the patient with high CPK [4]: 1051 µg·h/mL
plasma peak concentration of the patient with high CPK [4]: 84.4 mg/L
plasma trough concentration of the patient with high CPK [4]: 18.7 mg/L
plasma CPK concentration reached in the one patient with high CPK (single patient, baseline 325 U/L): 1000 U/L
